Numbering of substitutions follows the chain as printed.
Columns and labels:
GluRδ2^Lc P528C+L789C = target: T1, GluRδ2^Lc P528C+L789C (Rattus norvegicus, UniProt Q63226, A654T/L789C/P528C); test: Two-electrode voltage-clamp recordings in Xenopus oocytes, GluRδ2^Lc P528C+L789C; format: cell-based
T1 sequence (Q63226 24-1007 P528C/A654T/L789C): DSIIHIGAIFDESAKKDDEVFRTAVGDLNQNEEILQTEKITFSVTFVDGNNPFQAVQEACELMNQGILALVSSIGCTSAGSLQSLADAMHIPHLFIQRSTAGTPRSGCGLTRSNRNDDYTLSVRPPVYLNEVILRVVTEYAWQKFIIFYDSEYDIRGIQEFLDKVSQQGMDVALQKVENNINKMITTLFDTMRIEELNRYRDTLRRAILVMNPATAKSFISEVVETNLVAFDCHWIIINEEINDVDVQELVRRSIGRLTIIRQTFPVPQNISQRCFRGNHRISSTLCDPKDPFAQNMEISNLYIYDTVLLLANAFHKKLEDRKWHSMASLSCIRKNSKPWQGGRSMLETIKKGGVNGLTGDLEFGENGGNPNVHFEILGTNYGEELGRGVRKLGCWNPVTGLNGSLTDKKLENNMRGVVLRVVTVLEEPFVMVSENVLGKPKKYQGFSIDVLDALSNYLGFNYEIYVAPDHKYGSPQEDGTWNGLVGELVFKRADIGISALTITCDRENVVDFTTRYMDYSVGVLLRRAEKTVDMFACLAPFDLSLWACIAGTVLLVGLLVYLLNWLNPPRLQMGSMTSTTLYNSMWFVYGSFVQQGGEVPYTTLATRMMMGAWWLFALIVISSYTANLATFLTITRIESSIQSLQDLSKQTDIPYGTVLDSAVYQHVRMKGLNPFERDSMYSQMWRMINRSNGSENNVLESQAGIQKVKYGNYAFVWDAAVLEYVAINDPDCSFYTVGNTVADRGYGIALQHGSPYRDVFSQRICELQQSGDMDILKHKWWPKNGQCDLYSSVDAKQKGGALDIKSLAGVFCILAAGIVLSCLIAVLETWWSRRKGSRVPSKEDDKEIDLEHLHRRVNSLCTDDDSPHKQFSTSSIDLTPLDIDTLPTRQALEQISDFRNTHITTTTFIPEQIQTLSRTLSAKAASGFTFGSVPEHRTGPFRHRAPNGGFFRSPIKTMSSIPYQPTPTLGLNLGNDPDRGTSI

[1] = target: T2, GluRδ2^Wt P528C+L789C+C811S (Rattus norvegicus, UniProt Q63226, C811S/L789C/P528C); format: cell-based; conditions: data not shown
T2 sequence (Q63226 24-1007 P528C/L789C/C811S): T1 sequence (Q63226 24-1007 P528C/A654T/L789C) with T631A, C788S

| D-serine + 0 mM Ca^2+ nH (GluRδ2^Lc P528C+L789C; Hill slope, 0 mM Ca^2+) | D-serine + 3 mM Ca^2+ nH (GluRδ2^Lc P528C+L789C; Hill slope, 3 mM Ca^2+) | Ca^2+ potentiation (relative to baseline) (GluRδ2^Lc P528C+L789C; 3 mM Ca^2+, ± SEM) [fold] | SMILES | response to D-serine [1] |
| --- | --- | --- | --- | --- |
| 1.1 | 0.8 |  | N[C@H](CO)C(=O)O [D-serine] | Neither the C811S mutation nor the triple P528C+L789C+C811S mutation resulted in measurable responses |
|  |  | 0.9 ± 0.01 | [Ca+2] [Ca^2+, calcium] |  |

Reference: PMC2806602 (The Journal of neuroscience : the official journal of the …, 2009)
